Data: patent US4315027A, “Pesticidal symmetrical and asymmetrical sulfinyldicarbamates containing a heterocyclic group” (priority 1980, dated 1982)

Test system: mosquito larvae, Culex pipiens
Test: Larvicidal activity against mosquito larvae in water
Type: in vivo
Conditions: 1 ml acetone solution in 100 ml water, 3rd instar larvae
Experimental: Representative compounds of the N,N'-sulfinyldicarbamate esters of the invention were tested for insecticidal activity against two insect species, house flies, Musca domestica, and mosquito larvae, Culex pipiens. Stock 1% concentrated solutions of each of the test compounds were made in acetone, and such solutions diluted with acetone to a concentration of 0.001-0.1%. House flies were treated topically on the notum by 1 μl of each of the diluted acetone solutions and percent mortality was counted 24 hours after application. Insects were held at a constant temperature of 60° F. Larvicidal activity was determined by applying 1 ml of the acetone solution in 100 ml of water containing 20 3rd instar mosquito larvae. Results are presented as LD50 in μg/g for house flies and LC50 in ppm for mosquito larvae.

Structure (SMILES)	Culex LC50 [ppm]
CCCCCCCOC(=O)N(C)[S+]([O-])N(C)C(=O)Oc1cccc2c1OC(C)(C)C2 (stereo not drawn) [X, 2,3-dihydro-2,2-dimethylbenzofuranyl-7 N-[N'-(n-heptoxycarbonyl)-N'-(methylaminosulfinyl)]-N-methylcarbamate]	0.015
CCOC(=O)N(C)[S+]([O-])N(C)C(=O)Oc1cccc2c1OC(C)(C)C2 (stereo not drawn) [VIII, 2,3-dihydro-2,2-dimethylbenzofuranyl-7 N-[N'-(ethoxycarbonyl)-N'-(methylaminosulfinyl)]-N-methylcarbamate]	0.04
CCCOC(=O)N(C)[S+]([O-])N(C)C(=O)Oc1ccccc1OC(C)C (stereo not drawn) [XI, 2-isopropoxyphenyl N-[N'-(n-propoxycarbonyl)-N'-(methylaminosulfinyl)]-N-methylcarbamate]	0.18
